Measurements as given in ChEMBL document CHEMBL2434853, “3-(3-Butylamino-2-hydroxy-propoxy)-1-hydroxy-xanthen-9-one acts as a topoisomerase IIα catalytic inhibitor with low DNA damage” (Eur J Med Chem, 2013).
Activity calls are given as the source filed them. The calls are words filed in the database; no cut-off is given here.

Assays:
[1] = test system: T47D; test: Cytotoxicity against human T47D cells after 2 days by CCK-8 assay; format: functional, cell-based; conditions: 48 h
[2] = biological target: T1, DNA topoisomerase 2-alpha (Homo sapiens, UniProt P11388); test: Inhibition of human DNA topoisomerase-2alpha assessed as relaxation of supercoiled pBR322 DNA after 30 mins by agarose gel electrophoresis
T1 sequence (P11388 whole entry): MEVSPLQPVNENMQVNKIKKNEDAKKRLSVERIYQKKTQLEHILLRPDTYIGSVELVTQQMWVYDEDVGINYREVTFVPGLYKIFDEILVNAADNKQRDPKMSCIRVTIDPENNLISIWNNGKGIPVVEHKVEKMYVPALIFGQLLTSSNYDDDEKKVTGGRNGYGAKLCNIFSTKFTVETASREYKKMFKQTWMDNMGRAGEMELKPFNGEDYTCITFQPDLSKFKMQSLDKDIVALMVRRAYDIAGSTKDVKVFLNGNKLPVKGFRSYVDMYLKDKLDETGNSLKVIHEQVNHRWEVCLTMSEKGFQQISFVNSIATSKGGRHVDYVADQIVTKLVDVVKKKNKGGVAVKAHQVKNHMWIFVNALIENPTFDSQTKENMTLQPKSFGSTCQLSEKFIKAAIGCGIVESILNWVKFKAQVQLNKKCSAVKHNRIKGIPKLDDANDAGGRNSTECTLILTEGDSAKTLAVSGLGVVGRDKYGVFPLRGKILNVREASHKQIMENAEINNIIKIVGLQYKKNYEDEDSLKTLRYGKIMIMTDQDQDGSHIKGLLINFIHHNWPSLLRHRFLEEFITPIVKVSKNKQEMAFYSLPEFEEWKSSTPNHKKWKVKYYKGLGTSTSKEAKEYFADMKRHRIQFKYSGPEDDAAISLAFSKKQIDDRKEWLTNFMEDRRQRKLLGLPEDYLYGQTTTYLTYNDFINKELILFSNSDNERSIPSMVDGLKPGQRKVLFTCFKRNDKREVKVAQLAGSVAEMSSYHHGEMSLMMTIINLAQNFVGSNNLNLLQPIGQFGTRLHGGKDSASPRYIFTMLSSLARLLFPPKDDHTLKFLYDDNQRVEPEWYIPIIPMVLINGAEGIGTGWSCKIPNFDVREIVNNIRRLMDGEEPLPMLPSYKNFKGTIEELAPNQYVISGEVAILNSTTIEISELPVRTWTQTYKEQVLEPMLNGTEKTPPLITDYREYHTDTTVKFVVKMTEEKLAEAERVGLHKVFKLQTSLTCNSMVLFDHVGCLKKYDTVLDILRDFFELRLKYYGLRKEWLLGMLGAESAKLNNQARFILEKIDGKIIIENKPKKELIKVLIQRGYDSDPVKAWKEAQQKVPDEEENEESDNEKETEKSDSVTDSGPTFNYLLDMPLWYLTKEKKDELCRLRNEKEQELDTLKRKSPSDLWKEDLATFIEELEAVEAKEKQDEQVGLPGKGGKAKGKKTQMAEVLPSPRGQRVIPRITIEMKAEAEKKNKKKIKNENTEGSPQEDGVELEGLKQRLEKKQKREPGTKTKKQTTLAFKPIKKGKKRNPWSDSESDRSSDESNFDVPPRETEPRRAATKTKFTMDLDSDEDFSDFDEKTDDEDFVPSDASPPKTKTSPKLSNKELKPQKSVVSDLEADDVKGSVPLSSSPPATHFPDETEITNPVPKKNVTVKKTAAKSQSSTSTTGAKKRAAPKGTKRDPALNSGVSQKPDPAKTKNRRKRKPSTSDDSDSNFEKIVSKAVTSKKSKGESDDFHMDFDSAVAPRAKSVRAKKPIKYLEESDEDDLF

[3] = biological target: T1, DNA topoisomerase 2-alpha; test: Inhibition of human DNA topoisomerase-2alpha assessed as relaxation of supercoiled pBR322 DNA at 20 uM after 30 mins by agarose gel electrophoresis relative to control
[4] = biological target: T2, DNA topoisomerase 1 (Homo sapiens) (UniProt P11387); test: Inhibition of recombinant human DNA topoisomerase-1 assessed as relaxation of supercoiled pBR322 DNA at 20 uM after 30 mins by agarose gel electrophoresis relative to control
T2 sequence (whole entry): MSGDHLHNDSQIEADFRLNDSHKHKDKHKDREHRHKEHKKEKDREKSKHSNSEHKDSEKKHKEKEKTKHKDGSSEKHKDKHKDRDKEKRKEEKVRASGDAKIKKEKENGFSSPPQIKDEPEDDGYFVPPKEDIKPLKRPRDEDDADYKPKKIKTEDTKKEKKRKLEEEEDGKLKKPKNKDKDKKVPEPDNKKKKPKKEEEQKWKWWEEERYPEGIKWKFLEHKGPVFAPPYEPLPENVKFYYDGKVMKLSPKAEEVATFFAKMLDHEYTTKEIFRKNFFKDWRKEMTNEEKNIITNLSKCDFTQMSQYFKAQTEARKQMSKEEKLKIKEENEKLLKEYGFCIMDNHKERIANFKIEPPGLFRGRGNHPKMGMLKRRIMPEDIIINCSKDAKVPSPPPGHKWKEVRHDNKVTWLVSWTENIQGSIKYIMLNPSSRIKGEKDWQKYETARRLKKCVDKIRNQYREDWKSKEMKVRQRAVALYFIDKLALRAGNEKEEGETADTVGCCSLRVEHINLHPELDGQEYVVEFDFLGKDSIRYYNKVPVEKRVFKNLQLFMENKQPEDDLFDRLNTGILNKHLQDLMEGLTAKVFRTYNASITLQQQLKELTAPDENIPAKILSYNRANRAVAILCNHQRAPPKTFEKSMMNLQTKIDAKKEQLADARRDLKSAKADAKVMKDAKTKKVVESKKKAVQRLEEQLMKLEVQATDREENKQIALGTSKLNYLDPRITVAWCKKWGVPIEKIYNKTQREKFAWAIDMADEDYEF

[5] = biological target: T1, DNA topoisomerase 2-alpha; test: Inhibition of human DNA topoisomerase-2alpha assessed as relaxation of supercoiled pBR322 DNA at 100 uM after 30 mins by agarose gel electrophoresis relative to control
[6] = test system: DU-145; test: Cytotoxicity against human DU145 cells after 2 days by CCK-8 assay; format: functional, cell-based; conditions: DU-145, 48 h
[7] = test system: HCT-15; test: Cytotoxicity against human HCT15 cells after 2 days by CCK-8 assay; format: functional, cell-based; conditions: HCT-15, 48 h
[8] = biological target: T1, DNA topoisomerase 2-alpha; test: Inhibition of human DNA topoisomerase-2alpha assessed as relaxation of supercoiled pBR322 DNA at 10 uM after 30 mins by agarose gel electrophoresis relative to control
[9] = test system: HEK293; test: Cytotoxicity against HEK293 cells after 2 days by CCK-8 assay; format: functional, cell-based; conditions: Homo sapiens, HEK293, 48 h
[10] = test system: Escherichia coli; test: Induction of Escherichia coli pBR322 DNA intercalating activity assessed as retardation of DNA at 1 to 2.5 uM after 20 mins by agarose gel electrophoresis
[11] = Induction of pHOT1 DNA (unknown origin) intercalating activity assessed as blockade of DNA unwinding at 50 to 500 uM after 30 mins by agarose gel electrophoresis in presence of DNA topoisomerase-1
[12] = test system: HCT-15; test: Potency index, ratio of etoposide IC50 to compound IC50 for human HCT15 cells; format: functional
[13] = biological target: T1, DNA topoisomerase 2-alpha; conditions: 10 uM
Description: Competitive inhibition of recombinant human DNA topoisomerase-2alpha assessed as relaxation of supercoiled pBR322 DNA at 10 uM after 30 mins by agarose gel electrophoresis in presence of 1.5 mM ATP relative to control

[14] = biological target: T1, DNA topoisomerase 2-alpha; conditions: 10 uM; remark: listed apart in the source
Description: Competitive inhibition of recombinant human DNA topoisomerase-2alpha assessed as relaxation of supercoiled pBR322 DNA at 10 uM after 30 mins by agarose gel electrophoresis in presence of 1 mM ATP relative to control

[15] = biological target: T1, DNA topoisomerase 2-alpha; conditions: 2 uM
Description: Competitive inhibition of recombinant human DNA topoisomerase-2alpha assessed as relaxation of supercoiled pBR322 DNA at 2 uM after 30 mins by agarose gel electrophoresis in presence of 1.5 mM ATP relative to control

[16] = biological target: T1, DNA topoisomerase 2-alpha; conditions: 100 uM
Description: Competitive inhibition of recombinant human DNA topoisomerase-2alpha assessed as relaxation of supercoiled pBR322 DNA at 100 uM after 30 mins by agarose gel electrophoresis in presence of 1.5 mM ATP relative to control

[17] = test system: HCT-15; test: Induction of DNA damage in human HCT15 cells at 10 uM after 24 hrs by comet assay; format: functional, cell-based
[18] = biological target: T1, DNA topoisomerase 2-alpha; test: Inhibition of human DNA topoisomerase-2alpha ATPase activity using supercoiled pUC18 DNA as substrate assessed as inorganic phosphate release at 200 uM incubated for 30 mins prior to ATP addition measured after 30 mins by malachite green phosphate assay relative to control
[19] = biological target: T1, DNA topoisomerase 2-alpha; conditions: 50 uM
Description: Competitive inhibition of recombinant human DNA topoisomerase-2alpha assessed as relaxation of supercoiled pBR322 DNA at 50 uM after 30 mins by agarose gel electrophoresis in presence of 1 mM ATP relative to control

[20] = biological target: T1, DNA topoisomerase 2-alpha; conditions: 50 uM; remark: listed apart in the source
Description: Competitive inhibition of recombinant human DNA topoisomerase-2alpha assessed as relaxation of supercoiled pBR322 DNA at 50 uM after 30 mins by agarose gel electrophoresis in presence of 1.5 mM ATP relative to control

[21] = biological target: T1, DNA topoisomerase 2-alpha; conditions: 20 uM
Description: Competitive inhibition of recombinant human DNA topoisomerase-2alpha assessed as relaxation of supercoiled pBR322 DNA at 20 uM after 30 mins by agarose gel electrophoresis in presence of 1.5 mM ATP relative to control

[22] = test system: Escherichia coli; test: Induction of Escherichia coli pBR322 DNA intercalating activity assessed as retardation of DNA at 300 uM after 20 mins by agarose gel electrophoresis
[23] = biological target: T1, DNA topoisomerase 2-alpha; conditions: 20 uM; remark: listed apart in the source
Description: Competitive inhibition of recombinant human DNA topoisomerase-2alpha assessed as relaxation of supercoiled pBR322 DNA at 20 uM after 30 mins by agarose gel electrophoresis in presence of 1 mM ATP relative to control

[24] = biological target: T1, DNA topoisomerase 2-alpha; conditions: 100 uM; remark: listed apart in the source
Description: Competitive inhibition of recombinant human DNA topoisomerase-2alpha assessed as relaxation of supercoiled pBR322 DNA at 100 uM after 30 mins by agarose gel electrophoresis in presence of 1 mM ATP relative to control

[25] = biological target: T1, DNA topoisomerase 2-alpha; conditions: 5 uM
Description: Competitive inhibition of recombinant human DNA topoisomerase-2alpha assessed as relaxation of supercoiled pBR322 DNA at 5 uM after 30 mins by agarose gel electrophoresis in presence of 1.5 mM ATP relative to control

[26] = biological target: T1, DNA topoisomerase 2-alpha; test: Inhibition of human DNA topoisomerase-2alpha ATPase activity using supercoiled pUC18 DNA as substrate assessed as inorganic phosphate release at 300 uM incubated for 30 mins prior to ATP addition measured after 30 mins by malachite green phosphate assay relative to control
[27] = Induction of pHOT1 DNA (unknown origin) intercalating activity assessed as blockade of DNA unwinding after 30 mins by agarose gel electrophoresis in presence of DNA topoisomerase-1
[28] = biological target: T1, DNA topoisomerase 2-alpha; conditions: 5 uM; remark: listed apart in the source
Description: Competitive inhibition of recombinant human DNA topoisomerase-2alpha assessed as relaxation of supercoiled pBR322 DNA at 5 uM after 30 mins by agarose gel electrophoresis in presence of 1 mM ATP relative to control

[29] = biological target: T1, DNA topoisomerase 2-alpha; conditions: 2 uM; remark: listed apart in the source
Description: Competitive inhibition of recombinant human DNA topoisomerase-2alpha assessed as relaxation of supercoiled pBR322 DNA at 2 uM after 30 mins by agarose gel electrophoresis in presence of 1 mM ATP relative to control

[30] = biological target: T1, DNA topoisomerase 2-alpha; test: Inhibition of human DNA topoisomerase-2alpha ATPase activity using supercoiled pUC18 DNA as substrate assessed as inorganic phosphate release at 400 uM incubated for 30 mins prior to ATP addition measured after 30 mins by malachite green phosphate assay relative to control

SMILES | IC50 [1] [µM] | IC50 [2] [µM] | inhibition [3] [%] | inhibition [4] [%] | inhibition [5] [%] | IC50 [6] [µM] | IC50 [7] [µM] | inhibition [8] [%] | IC50 [9] [µM] | other results
CCCCCNCC(O)COc1cc(O)c2c(=O)c3cccc(OC)c3oc2c1 (configuration not stated) | 9.8 | 13.8 | 62.6 | 0 | 100 | 0.91 | 1 | 2 | 7.22 | –
CCCCCNCC(O)COc1cc(O)c2c(=O)c3ccccc3oc2c1 (configuration not stated) | 1.62 | 16.4 | 52.1 | 3 | 92.9 | 1.13 | 0.71 | 0.7 | 2.65 | –
CC[n+]1c(-c2ccccc2)c2cc(N)ccc2c2ccc(N)cc21 | – | – | – | – | – | – | – | – | – | Activity [10]: Active
CC[C@@]1(O)C(=O)OCc2c1cc1n(c2=O)Cc2cc3ccccc3nc2-1 [CAMPTOTHECIN] | 0.3 | – | – | – | – | 0.39 | 0.42 | – | 0.78 | –
CCCNCC(O)COc1cc(O)c2c(=O)c3cccc(OC)c3oc2c1 (configuration not stated) | 3.33 | 12 | 64.4 | 0 | 100 | 1.48 | 5.39 | 6 | 3.62 | –
COc1cc(NS(C)(=O)=O)ccc1Nc1c2ccccc2nc2ccccc12 | – | – | – | – | – | – | – | – | – | Activity [11]: Active
CCCCNCC(O)COc1cc(O)c2c(=O)c3ccccc3oc2c1 (configuration not stated) | 0.93 | 9 | 67.7 | 0 | 95.1 | 1.98 | 0.78 | 64 | 3.44 | Ratio IC50 [12]: 6.6; inhibition [13]: 21%; inhibition [14]: 60.4%; inhibition [15]: 7.1%; inhibition [16]: 88.7%; Activity [17]: inactive; inhibition [18]: 15.1%; inhibition [19]: 87.7%; inhibition [20]: 64.9%; inhibition [21]: 37.7%; Activity [22]: Active; inhibition [23]: 87.9%; inhibition [24]: 88.7%; inhibition [25]: 17.5%; inhibition [26]: 23.9%; Activity [27]: Dose-dependent effect; inhibition [28]: 48.5%; inhibition [29]: 4%; inhibition [30]: 33.7%
COc1cccc2c1C(=O)c1c(O)c3c(c(O)c1C2=O)C[C@@](O)(C(=O)CO)C[C@@H]3O[C@H]1C[C@H](N)[C@H](O)[C@H](C)O1 [DOXORUBICIN] | 0.41 | – | – | – | – | 2.68 | 1.38 | – | 3.07 | –
COc1cc([C@@H]2c3cc4c(cc3[C@@H](O[C@@H]3O[C@@H]5CO[C@@H](C)O[C@H]5[C@H](O)[C@H]3O)[C@H]3COC(=O)[C@H]23)OCO4)cc(OC)c1O [ETOPOSIDE] | 3.42 | – | – | – | – | 9.29 | 5.12 | 18 | 0.72 | inhibition [16]: 82.6%; Activity [17]: Active; inhibition [24]: 87.6%
CCCCCCNCC(O)COc1cc(O)c2c(=O)c3cccc(OC)c3oc2c1 (configuration not stated) | 6.17 | 13.8 | 61.2 | 0 | 100 | 1.79 | 6.32 | 0 | 4.53 | –
CCCCCCNCC(O)COc1cc(O)c2c(=O)c3ccccc3oc2c1 (configuration not stated) | 1.28 | 19.7 | 43.6 | 0 | 80.7 | 1.15 | 1.53 | 0 | 1.45 | –
CCCNCC(O)COc1cc(O)c2c(=O)c3ccccc3oc2c1 (configuration not stated) | 6.49 | 10.4 | 60.2 | 0 | 93.8 | 1.98 | 5.49 | 50.2 | 4.28 | –
CCCCNCC(O)COc1cc(O)c2c(=O)c3cccc(OC)c3oc2c1 (configuration not stated) | 2.97 | 11.2 | 68.1 | 0 | 100 | 3.31 | 9.11 | 24.2 | 1.74 | –
CO[C@@H]1[C@@H](OC(N)=O)[C@@H](O)[C@H](Oc2ccc3c(O)c(NC(=O)c4ccc(O)c(CC=C(C)C)c4)c(=O)oc3c2C)OC1(C)C | – | – | – | – | – | – | – | – | – | inhibition [18]: 14.4%; inhibition [26]: 63.6%; inhibition [30]: 76.8%
